Values quoted from earlier work, collected in US8822536B2, “Dietary supplements containing terpenoid acids of maslinic acid or oleanolic acid and process for enhancing muscle mass in mammals” (FHG Corporation d/b/a Integrity Nutraceuticals, priority 2009, dated 2014).

Assays:
juvenile dentex fish = conditions: 80 mg kg-1
glycogen phosphorylase = molecular target: T1, glycogen phosphorylase (Oryctolagus cuniculus, UniProt P00489)
T1 sequence (P00489 2-843 limits assumed): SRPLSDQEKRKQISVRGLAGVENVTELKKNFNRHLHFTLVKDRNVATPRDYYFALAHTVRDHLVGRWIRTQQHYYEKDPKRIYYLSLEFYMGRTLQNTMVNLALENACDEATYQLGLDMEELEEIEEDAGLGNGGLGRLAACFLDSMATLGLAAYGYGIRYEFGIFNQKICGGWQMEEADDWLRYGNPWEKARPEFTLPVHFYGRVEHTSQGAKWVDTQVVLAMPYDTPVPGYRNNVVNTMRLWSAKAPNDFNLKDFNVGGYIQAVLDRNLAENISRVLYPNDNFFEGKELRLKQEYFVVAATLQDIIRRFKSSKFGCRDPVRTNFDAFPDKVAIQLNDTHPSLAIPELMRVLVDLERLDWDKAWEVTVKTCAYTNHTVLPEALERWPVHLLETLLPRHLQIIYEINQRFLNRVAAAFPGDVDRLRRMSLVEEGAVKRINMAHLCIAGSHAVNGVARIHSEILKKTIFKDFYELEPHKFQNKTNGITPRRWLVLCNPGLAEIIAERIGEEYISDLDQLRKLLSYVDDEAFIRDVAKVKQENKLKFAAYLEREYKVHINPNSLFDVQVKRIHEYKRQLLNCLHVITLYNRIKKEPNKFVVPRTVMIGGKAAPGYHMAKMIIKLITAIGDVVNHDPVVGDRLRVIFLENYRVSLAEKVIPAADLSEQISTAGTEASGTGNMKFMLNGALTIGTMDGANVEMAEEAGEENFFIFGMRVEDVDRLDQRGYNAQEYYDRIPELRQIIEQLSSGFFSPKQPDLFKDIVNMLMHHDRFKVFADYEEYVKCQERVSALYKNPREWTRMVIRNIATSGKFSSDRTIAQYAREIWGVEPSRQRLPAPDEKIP

[1] = trout fed 250 mg kg-1, with respect to a control
[2] = trout fed 25 and 250 mg kg-1, white muscle

CC1(C)CC[C@]2(C(=O)O)CC[C@]3(C)C(=CC[C@@H]4[C@@]5(C)C[C@@H](O)[C@H](O)C(C)(C)[C@@H]5CC[C@]43C)[C@@H]2C1 [maslinic acid, 2-α,3-β-dihydroxyolean-12-en-28-oic acid]
protein degradation rate, relative (KD) and absolute (AD) (trout; dietary maslinic acid, trout): stimulated
protein synthesis (trout; dietary maslinic acid, trout): induces higher protein synthesis
feed-efficiency ratio (FER) (trout; [1]): increased
protein-efficiency ratio (PER) (trout; [1]): increased
absolute protein-degradation rate (AD) (trout; [2]): only a minor increase
fractional protein-degradation rate (KD) (trout; [2]): no significant changes
protein-synthesis rate (KS and AS) (trout; [2]): increased
protein-accumulation rates (KG and AG) (trout; trout fed with maslinic acid): high protein-accumulation rates
growth of juvenile dentex fish (juvenile dentex fish): retard
accumulation of glycogen in liver (rainbow trout liver): high accumulation of glycogen
glycogen phosphorylase inhibition (glycogen phosphorylase): new type of glycogen phosphorylase inhibitor
